The values below come from patent publication US12472193B2, “Methods and compositions for treating and preventing respiratory related diseases and conditions with xylitol-headgroup lipid analogs” (National Jewish Health, priority 2017, dated 2025).

The target in one experiment is T1, TLR 9 (Mus musculus, UniProt Q9EQU3).
T1 construct: RAW264.7 cells secrete TNF-α in response to the TLR9 agonist CpG; endogenous in cells; host or cells: RAW264.7 (ATCC)
T1 sequence (Q9EQU3 26-1032): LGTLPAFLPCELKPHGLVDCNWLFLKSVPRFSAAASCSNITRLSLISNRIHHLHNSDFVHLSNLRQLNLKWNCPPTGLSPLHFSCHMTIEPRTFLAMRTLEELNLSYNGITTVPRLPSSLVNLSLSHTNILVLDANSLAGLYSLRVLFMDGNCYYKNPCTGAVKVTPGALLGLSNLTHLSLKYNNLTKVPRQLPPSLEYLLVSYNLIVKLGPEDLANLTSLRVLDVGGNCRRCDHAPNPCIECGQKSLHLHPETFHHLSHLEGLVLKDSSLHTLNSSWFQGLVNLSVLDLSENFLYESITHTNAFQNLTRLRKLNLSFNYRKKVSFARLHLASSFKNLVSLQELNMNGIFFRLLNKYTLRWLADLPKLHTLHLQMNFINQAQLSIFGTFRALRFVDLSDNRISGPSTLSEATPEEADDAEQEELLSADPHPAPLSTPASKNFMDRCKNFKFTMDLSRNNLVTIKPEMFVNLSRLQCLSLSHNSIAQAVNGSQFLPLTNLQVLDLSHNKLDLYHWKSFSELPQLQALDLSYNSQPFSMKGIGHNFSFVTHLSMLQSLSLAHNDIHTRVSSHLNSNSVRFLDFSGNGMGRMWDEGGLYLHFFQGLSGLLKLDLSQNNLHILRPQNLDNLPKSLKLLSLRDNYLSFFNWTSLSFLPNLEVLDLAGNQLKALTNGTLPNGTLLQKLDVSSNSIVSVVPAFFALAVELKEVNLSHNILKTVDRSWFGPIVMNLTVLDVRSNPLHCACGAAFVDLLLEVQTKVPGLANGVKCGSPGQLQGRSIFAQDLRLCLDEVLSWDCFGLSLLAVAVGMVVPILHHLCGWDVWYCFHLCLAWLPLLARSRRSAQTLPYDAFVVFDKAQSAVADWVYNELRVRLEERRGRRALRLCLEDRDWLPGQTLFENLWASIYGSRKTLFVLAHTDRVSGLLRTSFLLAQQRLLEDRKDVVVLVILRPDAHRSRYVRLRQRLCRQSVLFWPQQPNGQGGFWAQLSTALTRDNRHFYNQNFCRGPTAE
As to the kind of experiment: CpG-induced TNFα secretion by RAW264.7 cells (TLR 9 antagonism). The format is cell-based. Conditions: 5 μg/mL CpG, 100 μg/mL phospholipid, 5.5 hours. The protocol:
(§1) The mouse macrophage cell line, RAW264.7, was obtained from ATCC and maintained in DMEM, supplemented with 10% bovine growth serum and 1× penicillin streptomycin. Cells were maintained at 37° C. with 5% carbon dioxide: 95% air atmosphere within the incubator. Experiments were completed in a 96-well plate where cells were seated at a density of 1×10^5 cells per well, 24 prior to stimulation with TLR agonists and antagonists. Lipids were dried under a stream of nitrogen, hydrated with phosphate-buffered saline (PBS) at 37° C. for one hour, followed by water bath sonication to create liposomes. Each condition for cell stimulation and antagonism was prepared in DMEM in a separate tube and consisted of: control, TLR agonist, TLR agonist+lipid, and lipid alone. 100 μL aliquots of medium+agonists+antagonists were added to each well and incubated at 37° C. for 4 hours. Subsequently, the media were collected, diluted and an enzyme-linked immunosorbent assay (ELISA) was performed to quantify TNFα release by cells.
TLR 9 is another member of the intracellular TLRs found in the endosomal compartment. It detects unmethylated CpG sequences in DNA molecules commonly found among bacteria and DNA viruses (H. Hemmi, et al., “A Toll-like receptor recognizes bacterial DNA.,” Nature, vol. 408, no. 6813, pp. 740-5, December 2000; J. Lund, et al, “Toll-like receptor 9-mediated recognition of Herpes simplex virus-2 by plasmacytoid dendritic cells.,” J. Exp. Med., vol. 198, no. 3, pp. 513-20, August 2003). To test antagonism activity of PX lipids against TLR 9, RAW264.7 cells were stimulated for 5.5 hours with 5 μg/mL CpG in the absence or presence of 100 μg/mL phospholipid. […] The action of CpG is not affected by POPC, POPG, or many of the xylitol phospholipids, such as 14:0 DEPX, DSPX and 18:1 DEPX.

The target of a further experiment is T2, TLR 2/1 (Mus musculus, UniProt Q9EPQ1+Q9QUN7).
T2 construct: endogenous in cells; host or cells: RAW264.7 (ATCC)
As to the kind of experiment: Pam3Cys-induced TNFα release by RAW264.7 cells (TLR 2/1 antagonism). The format is cell-based. Conditions: for suppression of TLR 2/1 activation (TNFα release): Pam3Cys, 4 hours. Here is the method:
as §1
The ability of xylitol lipid analogs to suppress the activation of TLR 2 heterodimers was assessed. Pam3Cys was used to selectively stimulate TLR 2/1 signaling in RAW264.7 cells and MALP-2 was used as a TLR 2/6 selective agonist also in RAW264.7 cells. RAW264.7 cells were stimulated with Pam3Cys in the absence, or presence of PX lipids for 4 hours. Following incubation, media were collected, diluted and analyzed for TNFα release as a consequence of TLR activation. Results for analog activity against TLR 2/1 activation was assessed at two concentrations of phospholipid and are summarized in FIGS. 4A and 4B.
Initially, activity of xylitol lipid analogs was assessed at 100 μg/mL and it was unclear whether there was a real antagonist effect especially when compared to POPG. Experiments were repeated with a 200 μg/mL concentration of lipid to determine the ability of PX lipids to suppress TLR 2/1 activation in the presence of Pam3Cys. […] DPPX could have an effect on TLR 2/1 signaling at high concentrations.

“Also recorded” adds a separate entry of the source.

T2 sequence (Q9QUN7 25-784): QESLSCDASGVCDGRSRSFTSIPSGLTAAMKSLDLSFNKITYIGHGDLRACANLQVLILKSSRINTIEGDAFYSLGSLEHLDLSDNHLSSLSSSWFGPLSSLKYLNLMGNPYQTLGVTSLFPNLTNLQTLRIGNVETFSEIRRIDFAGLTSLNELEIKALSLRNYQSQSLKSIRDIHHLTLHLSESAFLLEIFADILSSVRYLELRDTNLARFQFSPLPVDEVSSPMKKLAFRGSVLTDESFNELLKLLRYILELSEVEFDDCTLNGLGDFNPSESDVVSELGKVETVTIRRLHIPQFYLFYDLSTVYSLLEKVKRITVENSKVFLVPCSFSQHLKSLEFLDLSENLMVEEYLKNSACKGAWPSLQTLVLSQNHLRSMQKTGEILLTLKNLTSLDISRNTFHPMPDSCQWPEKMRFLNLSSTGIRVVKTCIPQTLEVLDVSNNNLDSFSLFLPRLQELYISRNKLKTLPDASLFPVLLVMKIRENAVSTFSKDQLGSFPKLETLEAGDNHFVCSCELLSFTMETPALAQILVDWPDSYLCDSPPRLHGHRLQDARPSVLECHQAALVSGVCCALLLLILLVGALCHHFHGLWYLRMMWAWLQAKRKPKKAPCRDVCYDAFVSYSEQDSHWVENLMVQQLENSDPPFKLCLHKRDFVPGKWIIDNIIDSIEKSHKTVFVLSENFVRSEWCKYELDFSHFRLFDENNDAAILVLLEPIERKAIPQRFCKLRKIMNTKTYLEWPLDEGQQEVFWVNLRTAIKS
T2 sequence (Q9EPQ1 25-795 limits assumed): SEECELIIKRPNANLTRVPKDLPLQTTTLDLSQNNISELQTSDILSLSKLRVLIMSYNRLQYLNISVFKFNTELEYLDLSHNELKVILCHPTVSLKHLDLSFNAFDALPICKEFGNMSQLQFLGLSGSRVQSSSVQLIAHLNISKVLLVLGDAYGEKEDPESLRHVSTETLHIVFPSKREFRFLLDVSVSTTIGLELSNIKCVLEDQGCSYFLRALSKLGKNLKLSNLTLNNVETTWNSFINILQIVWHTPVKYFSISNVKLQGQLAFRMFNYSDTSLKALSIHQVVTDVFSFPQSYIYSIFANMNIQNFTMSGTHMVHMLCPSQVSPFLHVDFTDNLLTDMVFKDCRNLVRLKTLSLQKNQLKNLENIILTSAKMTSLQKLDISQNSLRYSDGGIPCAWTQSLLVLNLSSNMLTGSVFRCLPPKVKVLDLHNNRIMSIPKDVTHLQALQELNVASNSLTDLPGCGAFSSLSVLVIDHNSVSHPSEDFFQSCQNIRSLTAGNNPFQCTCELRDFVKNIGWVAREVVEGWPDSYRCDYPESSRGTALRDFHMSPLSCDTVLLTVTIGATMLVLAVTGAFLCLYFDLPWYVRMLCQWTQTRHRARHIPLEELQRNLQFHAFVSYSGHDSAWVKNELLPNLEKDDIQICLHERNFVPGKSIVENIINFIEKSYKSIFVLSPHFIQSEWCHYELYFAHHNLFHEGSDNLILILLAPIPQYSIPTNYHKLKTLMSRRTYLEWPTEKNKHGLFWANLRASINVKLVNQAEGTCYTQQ

For the molecule `CCCCCCCCC=CCCCCCCCCOCC(COP(=O)(O)OCC(O)C(O)C(O)CO)OCCCCCCCCC=CCCCCCCCC` (mixture of isomers) [18:1 DEPX, sn-1-O-octadecenyl, sn-2-O-octadecenyl sn-3 glycerol phosphoxylitol], on TLR 9, the “antagonism of TLR 9 activation (TNFα secretion)” value was “not affected”. In addition, the “suppression of TLR 2/1 activation (TNFα release)” value is recorded as “modest antagonists” on TLR 2/1 (100 μg/mL lipid) and “inhibit TLR2/1 activation to almost the same extent as the bioactive lipid POPG; also recorded: strongly suppressed; also recorded: suppressed TLR 2/1 activation” at TLR 2/1 (200 μg/mL lipid). In addition, the TLR2/1 antagonist activity result at TLR 2/1 (reduction in cytokine secretion vs activating TLR ligand alone) is recorded as “+ (cutoff being greater than a 50% reduction in cytokine secretion compared to activating TLR ligand alone)”.
For `CCCCCCCC/C=C\CCCCCCCC(=O)O[C@H](COC(=O)CCCCCCCCCCCCCCC)COP(=O)(O)OCC(O)CO` (stereo partly shown) [POPG, palmitoyl-oleoyl-phosphatidylglycerol, reference compound], the “antagonism of TLR 9 activation (TNFα secretion)” value on TLR 9 is reported as “not affected”. Also, the “suppression of TLR 2/1 activation (TNFα release)” value on TLR 2/1 (100 μg/mL lipid) and at TLR 2/1 (200 μg/mL lipid) was “markedly inhibited” in each case.
